According to patent publication US6423744B1, “Method of diminishing the adverse effects of interleukin-2” (Biomedicines, Inc., priority 1998, dated 2002):

Experiments:
[1] = test system: B16/BL6 murine melanoma tumor cells; experiment: Murine model of B16 melanoma lung metastases (Example 5); format: in vivo
Experimental: The B16/BL6 murine melanoma tumor cells for injection were obtained from in vitro culture. Mice were inoculated with 3×10^5 cells intravenously on Day 0.
Tumor cells were injected on Day 0. […] An additional group of 15 untreated control mice was used for timing the termination of the study. At Day 10, three untreated control mice were to be euthanized each day until tumor burden was determined to be optimal for counting metastatic foci, at which time the remaining rumored and five non-rumored mice were to be euthanized and lungs removed for determination of body weights, lung weights and numbers of metastatic foci.
Anti-tumor activity was assessed by counts of metastatic foci in the lungs. Comparison among the three treatment groups (Groups 1, 2 and 3) was performed using one-way ANOVA (or Kruskal-Wallis one-way analysis of variance on ranks for data with non-normal distribution) with the three between-group comparisons performed using adjustment for multiple comparisons.

[2] = test system: IL-2-induced reduction in oxygenation; conditions: rat
Experimental: Animals were weighed on the day of dosing and the appropriate doses of IL-2 and/or LA were calculated. The animals remained conscious throughout the experiment until an anesthetic was administered approximately 10 minutes before exsanguination. The anesthetic consisted of a mixture of ketamine (45 mg/ml) xylazine (2.5 mg/ml), and acepromazine (0.37 mg/ml) diluted with water and administered subcutaneously at a dose of 2.0 ml/kg.
Group 1 (n=14) consisted of control animals that received both i.v. and i.p. injections of vehicle. The other five groups received i.v. injections of IL-2 via the tail vein. Groups 2 (n=8), 3 (n=4), and 4 (n=10) received IL-2 in doses of 1.5, 6.0, and 12.5 million IU(MIU)/kg, respectively. In addition to 12.5 million IU/kg of IL-2, Groups 5 (n=8) and 6 (n=13) received i.p. injections of the LA. The LA was administered in two equal, divided doses; the first dose of LA was given 20 minutes before administration of IL-2 and the second dose was given 50 minutes after administration of IL-2. Group 5 was administered 2×10 mg/kg of the LA. Group 6 was administered 2×30 mg/kg of the LA.
Two hours after the IL-2 injection, the animals were exsanguinated via the abdominal aorta and the arterial blood was collected for measurement of PaO2.
Whole arterial blood was collected into heparinized blood arterial gas syringes. Immediately after collection, the blood sample was analyzed using PaO2 electrode model DO-166FT. Sample blood was pre-oxygenated and used as a standard before and after each test sample.
Data are shown as mean±SEM. Data were analyzed using the Tukey-Kramer test (JMP® statistical software from SAS, Inc.) Significance was defined as a p-value less than 0.05.

IL-2-induced toxicity [3] = conditions: rat, in vivo
Experimental: (§1) Six groups of animals were studied (total N=59). […] The animals remained conscious throughout the experiment until an anesthetic was administered approximately 10 minutes before planned exsanguination. The anesthetic consisted of a mixture of ketamine (45 mg/ml), xylazine (2.5 mg/ml), and acepromazine (0.37 mg/ml) diluted with water and administered subcutaneously at a dose of 2.0 ml/kg.
(§2) IL-2 or IL-2 vehicle was administered by bolus injection via the tail vein. […] Two hours after the injection of IL-2 or IL-2 vehicle, animals were exsanguinated via the abdominal aorta and the arterial blood was collected for measurement of PaO2.
(§3) Group 1 (n=13) consisted of control animals that received injections of each vehicle, either i.v. or i.p. as appropriate. The other five groups received i.v. bolus injections of IL-2 via the tail vein. Groups 2 (n=8), 3 (n=5), and 4 (n=13) received IL-2 in doses of 1.5, 6.0, and 12.5 million IU/kg, respectively.
The study was conducted in two phases.
(§4) Whole arterial blood was collected into heparinized syringes. Immediately after collection, the blood sample was analyzed using a Lazar Research Laboratories flow-through dissolved-oxygen probe. The cell temperature was set to 37 degrees centigrade. A syringe pump was set to 0.5 ml/min to introduce the sample. The cell was zeroed using a solution of heparin and isotonic saline equilibrated with 100% nitrogen. The cell was then calibrated using a solution of heparin and isotonic saline equilibrated with 20% oxygen. After each PaO2 determination in whole blood was made, the cell was washed with heparin ad isotonic saline. A 20% O2 standard was introduced before each sample to ensure accurate and reliable measurements.
(§5) If the data appeared to be normally distributed, the comparison was to be made using Student's t-test.

renal cell carcinoma [4] = conditions: IL-2 treatment alone; cited from earlier work
LTB4 chemotaxis [5] = experiment: Inhibition of LTB4 chemotaxis (in vitro); format: cell-based
[6] = test system: human neutrophil adhesion to LTB4-stimulated umbilical vein endothelial cells; experiment: Inhibition of human neutrophil adhesion to LTB4-stimulated umbilical vein endothelial cells; format: cell-based
[7] = test system: LTB4-induced neutrophil granulation; experiment: Inhibition of LTB4-induced neutrophil granulation; format: cell-based
LTB4 synthesis = experiment: Inhibition of LTB4 synthesis; format: biochemical
[8] = test system: LTA4 conversion into LTB4; experiment: Inhibition of LTA4 conversion into LTB4; format: biochemical
LTB4 chemotaxis [9] = experiment: Inhibition of LTB4 chemotaxis in guinea pigs; format: in vivo; conditions: Cavia porcellus, po; i.g.
12 (R)-HETE = experiment: Inhibition of 12 (R)-HETE in guinea pigs; format: in vivo; conditions: Cavia porcellus, po; i.g.
[10] = test system: acetic acid colonic inflammation; experiment: Inhibition of acetic acid colonic inflammation; format: in vivo; conditions: Rattus norvegicus, po; i.g.; read-out: Inhibition of acetic acid colonic inflammation in rats and guinea pig, ED50
[11] = test system: calcium ionophore dermal inflammation; experiment: Inhibition of calcium ionophore dermal inflammation in the guinea pig ear; conditions: in vivo
[12] = Biomed 101 plasma levels in rats (HPLC); format: in vivo, Sprague Dawley rats; conditions: rat
Experimental: In animals dosed with Biomed 101, plasma levels of Biomed 101 were assayed with a validated, high-pressure liquid chromatographic method.

[13] = format: in vivo; conditions: intraperitoneal, bid for 4 days, tumored mice treated with IL-2; preliminary study
renal cell carcinoma [14] = experiment: Clinical trial of LA plus IL-2 in patients with renal cell carcinoma (Example 6); format: in vivo, human
Experimental: A preferred LA compound (as defined in Example 3) from drug substance lot # BA901 was supplied as 25 mg capsules Batch # 99G111 by BioMedicines, Inc. Each hard gelatin capsule contained 25 mg LA plus excipients including lactose hydrous NF; hydroxypropylmethylcellulose 2910, 6 cps USP; sodium lauryl sulfate NF; purified water, USP; and sodium chloride.
Patients received IL-2 600,000 IU/kg by intravenous bolus three times daily during 5 days for a planned total of 14 doses. LA was administered orally 1 hour prior to each schedule dose of IL-2 as well as 8 hours after the final scheduled dose. If dose of IL-2 was withheld because of IL-2 induced toxicity, dosing with LA continued. Doses of LA ranged from 25 mg three times daily (TID) to 75 mg TID. Plasma levels of LA were obtained at each dose level.
The principal activity endpoint was the relationship between the total number of doses of IL-2 that could be administered and well tolerated by patients and the plasma levels of LA. A second endpoint was the response rate in patients of the tumor to the combination therapy with the leukotriene B4 receptor antagonist and IL-2 as judged by complete responses (total disappearance of measurable tumor) or partial responses (a ≧50% decrease in measurable tumor volume).
Data were analyzed by examining the significance of the correlation between number of doses of IL-2 and LA plasma level (Spearman's rho).

IL-2-induced toxicity [15] = experiment: Rat model of IL-2-induced toxicity, PaO2 (Example 4); conditions: Biomed 101 (20 or 60 mg/kg total i.p.) with IL-2 12.5 MIU/kg
Experimental: as §1, §2, §3
The study was conducted in two phases.
as §4, §5

## des-alanyl-1, serine-125 human interleukin-2 [IL-2]
[1]; Day 10, vehicle control 174
  Median Lung Weight: 177 mg
[1]; Kruskal-Wallis
  lung weights compared with vehicle control: did not decrease
[1]; mice, Group 2, IL-2 1 mg/kg iv, Day 4
  deaths: one death
[1]; treated group compared with control (untreated) group
  Changes in Metastases (mean) (N): −32 N
[2]; in vivo, iv
  arterial oxygen level (PaO2), mean±SEM: 77.5±2.5 mm Hg
  effect of progressively higher doses on arterial oxygen levels: progressively reduced
IL-2-induced toxicity [3]
  Change in Oxygen (mean) (mm Hg): −15 mm Hg
  decrease of mean PaO2 for each increase of 1 MIU/kg in IL-2 administered: approximately 1.8 mm Hg
  effect on PaO2: significant fall
Renal cell carcinoma [4]
  objective response rate historically noted: 8-10%

## CCCc1c(OCCCOc2ccc(C(C)=O)c(OC)c2CCC)ccc2c1OC(C(=O)O)CC2 (racemic) [Biomed 101, (±)7-[3-(4-acetyl-3-methoxy-2-propylphenoxy)propoxy]-3,4-dihydro-8-propyl-2H-1-benzopyran-2-carboxylic acid]
LTB4 chemotaxis [5]
  Inhibition of LTB4 chemotaxis, range: 0.3 to 3.0 µM
[6]
  Inhibition of human neutrophil adhesion to LTB4-stimulated umbilical vein endothelial cells, range: 0.3 to 1.0 µM
[7]
  Inhibition of LTB4-induced neutrophil granulation, range: 1 to 3 µM
LTB4 synthesis
  IC50: 2.1 µM
[8]
  IC50: 20 µM
LTB4 chemotaxis [9]
  ED50: 0.6 mg/kg
12 (R)-HETE
  ED50: 20 mg/kg
[10]
  ED50: 20 mg/kg
[11]
  Inhibition of calcium ionophore dermal inflammation in the guinea pig ear, ED50: 0.7 mg/ear
[12]; 20 mg/kg Biomed 101 i.p. (2×10 mg/kg)
  mean plasma level (± standard error of the mean) of Biomed 101: 2.0 (±0.26) μg/ml
[12]; 60 mg/kg Biomed 101 i.p. (2×30 mg/kg)
  mean plasma level (± standard error of the mean) of Biomed 101: 6.4 (±0.89) μg/ml
[1]; Day 10, IL-2 1 mg/kg iv, Biomed 101 25 mg/kg ip with IL-2, q6hx2, qdx4, vehicle control 98
  Number of lung mets Mean (± SEM): 56
[1]; mice, Biomed 101 25 mg/kg ip with IL-2
  effect of coadministration on the anti-tumor activity of IL-2: fully preserves and may enhance
[13]
  highest tolerated dose: 25 mg/kg bid
Renal cell carcinoma [14]
  number of doses of IL-2 withheld because of IL-2 toxicity as plasma level of LA increased: decreased
  total number of doses of IL-2 well tolerated as LA dose and plasma level rose: rose
Renal cell carcinoma [14]; 25 mg TID to 75 mg TID orally
  plasma level of LA with total daily dose: increased
[2]; LA 2×10 or 2×30 mg/kg i.p. with IL-2 12.5 MIU/kg i.v., p>0.5 vs control, p<0.001 vs IL-2 alone
  effect of LA on the reduction in oxygenation induced by IL-2: mitigated
IL-2-induced toxicity [15]
  Median PaO2 versus IL-2 alone: significantly higher
  Median PaO2 versus control animals: not significantly different
